Experimental data as given in patent US20250353891A1 (MEDIMMUNE LIMITED, priority 2022, published 2025).
Starred links: 1 amine or outer side, 2 acyl side, 3 side chain; linkers in the order of their positions; H or OH if unused. Non-standard residues stand in square brackets, D forms with d. Residues, ends and D or L forms follow the SMILES beside them. Groups on a side chain read outwards from the residue. *: point of attachment. C20 diacid = O=C(O)CCCCCCCCCCCCCCCCCCC(=O)*; C18 diacid = O=C(O)CCCCCCCCCCCCCCCCC(=O)*; γGlu = O=C(O)[C@H](CCC(=O)[*:2])N[*:1]; αMeF = C[C@](N)(Cc1ccccc1)C(=O)O; PEG2 = NCCOCCOCCC(=O)O; AEEA = NCCOCCOCC(=O)O; Aib = CC(C)(N)C(=O)O

Key:
[1] = target: human glucagon receptor (hGCGR) (Homo sapiens, UniProt P47871); assay: cAMP production (HTRF) in CHO cells expressing hGCGR; assay type: cell-based; parameters: expressed in transfected cells; conditions: Table 7, peptides modified at position 20; cAMP in CHO hGCGR cells; geometric mean; read-out: hGluc-R EC50
human glucagon receptor (hGCGR), sequence (P47871 26-477): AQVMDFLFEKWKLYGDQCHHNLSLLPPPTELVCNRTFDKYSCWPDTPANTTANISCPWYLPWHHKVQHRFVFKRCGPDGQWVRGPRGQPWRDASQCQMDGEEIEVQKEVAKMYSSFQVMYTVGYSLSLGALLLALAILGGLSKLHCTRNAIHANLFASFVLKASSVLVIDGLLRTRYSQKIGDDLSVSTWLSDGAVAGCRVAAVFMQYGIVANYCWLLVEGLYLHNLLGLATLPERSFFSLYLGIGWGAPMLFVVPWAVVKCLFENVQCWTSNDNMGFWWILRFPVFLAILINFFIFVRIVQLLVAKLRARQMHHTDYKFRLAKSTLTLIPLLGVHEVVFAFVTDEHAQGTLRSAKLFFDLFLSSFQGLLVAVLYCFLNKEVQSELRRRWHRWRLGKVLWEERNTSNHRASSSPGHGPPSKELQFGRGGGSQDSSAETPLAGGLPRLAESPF
How it was run: (§1)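 Read-out: HTRF cAMP (anti-cAMP cryptate donor, cAMP-d2 acceptor in conjugate/lysis buffer), converted to % Delta F and fitted by 4-parameter logistic for EC50. Cell densities were 1×10^5 cells/mL (hGLP-1R) or 2×10^5 cells/mL (hGCGR). Stimulation lasted 30 min at room temperature.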

[2] = target: human GLP-1 receptor (hGLP-1R) (Homo sapiens, UniProt P43220); assay: cAMP production (HTRF) in CHO cells expressing hGLP-1R; assay type: cell-based; parameters: expressed in transfected cells; conditions: for EC50: Table 7, peptides modified at position 20, cAMP in CHO hGLP-1R cells, geometric mean, read-out: hGLP-1R EC50; for % Relative Potency Ratio: Table 7, % GLP-1R activity relative to GLP-1 / % GlucR activity relative to glucagon
human GLP-1 receptor (hGLP-1R), sequence (P43220 24-463): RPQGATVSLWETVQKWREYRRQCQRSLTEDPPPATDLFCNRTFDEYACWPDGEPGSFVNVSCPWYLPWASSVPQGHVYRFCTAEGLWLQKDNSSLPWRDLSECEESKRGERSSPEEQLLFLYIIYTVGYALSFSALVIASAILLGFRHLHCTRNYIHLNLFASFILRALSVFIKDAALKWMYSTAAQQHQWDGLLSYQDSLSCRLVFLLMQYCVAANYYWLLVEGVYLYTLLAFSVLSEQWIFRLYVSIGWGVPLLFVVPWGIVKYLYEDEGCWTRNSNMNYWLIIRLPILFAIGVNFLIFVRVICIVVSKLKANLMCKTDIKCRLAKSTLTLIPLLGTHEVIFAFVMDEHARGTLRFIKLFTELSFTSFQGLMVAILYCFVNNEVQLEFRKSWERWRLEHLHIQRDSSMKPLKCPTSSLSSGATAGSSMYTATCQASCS
How it was run: as §1

EC50 [1] [nM]	EC50 [2] [nM]	% Relative Potency Ratio [2]	SMILES
0.146	0.148	2.0	CC[C@H](C)[C@H](NC(=O)C(C)(C)NC(=O)[C@H](CCC(N)=O)NC(=O)[C@@H](NC(=O)[C@](C)(Cc1ccccc1)NC(=O)[C@H](CC(=O)O)NC(=O)[C@H](CCCCNC(=O)COCCOCCNC(=O)COCCOCCNC(=O)CC[C@H](NC(=O)CCCCCCCCCCCCCCCCC(=O)O)C(=O)O)NC(=O)[C@H](C)NC(=O)[C@H](C)NC(=O)[C@H](CCC(N)=O)NC(=O)[C@H](CO)NC(=O)[C@H](CC(=O)O)NC(=O)[C@H](CC(C)C)NC(=O)[C@](C)(Cc1ccccc1)NC(=O)[C@H](CCCCN)NC(=O)[C@H](CO)NC(=O)[C@@H](NC(=O)[C@H](CC(=O)O)NC(=O)[C@H](CO)NC(=O)[C@@H](NC(=O)[C@](C)(Cc1ccccc1)NC(=O)[C@H](CO)NC(=O)CNC(=O)[C@H](Cc1c[nH]cn1)NC(=O)C(C)(C)NC(=O)[C@@H](N)Cc1c[nH]cn1)[C@@H](C)O)C(C)C)C(C)C)C(=O)N[C@@H](C)C(=O)N[C@@H](CC(N)=O)C(=O)N[C@H](C(N)=O)[C@@H](C)O [Peptide 255] (H-H[Aib]HGS[αMeF]TSDVSK[αMeF]LDSQAAK([AEEA-AEEA-γGlu-C18 diacid])D[αMeF]VQ[Aib]IANT-NH2; N-terminus assumed)
1.31	0.346	7.5	CC[C@H](C)[C@H](NC(=O)C(C)(C)NC(=O)[C@H](CCC(N)=O)NC(=O)[C@@H](NC(=O)[C@](C)(Cc1ccccc1)NC(=O)[C@H](CC(=O)O)NC(=O)[C@H](CCCCNC(=O)COCCOCCNC(=O)COCCOCCNC(=O)CC[C@H](NC(=O)CC[C@H](NC(=O)CCCCCCCCCCCCCCCCCCC(=O)O)C(=O)O)C(=O)O)NC(=O)[C@H](C)NC(=O)[C@H](C)NC(=O)[C@H](CCC(N)=O)NC(=O)[C@H](CO)NC(=O)[C@H](CC(=O)O)NC(=O)[C@H](CC(C)C)NC(=O)[C@](C)(Cc1ccccc1)NC(=O)[C@H](CCCCN)NC(=O)[C@H](CO)NC(=O)[C@@H](NC(=O)[C@H](CC(=O)O)NC(=O)[C@H](CO)NC(=O)[C@@H](NC(=O)[C@](C)(Cc1ccccc1)NC(=O)[C@H](CO)NC(=O)CNC(=O)[C@H](Cc1c[nH]cn1)NC(=O)C(C)(C)NC(=O)[C@@H](N)Cc1c[nH]cn1)[C@@H](C)O)C(C)C)C(C)C)C(=O)N[C@@H](C)C(=O)N[C@@H](CC(N)=O)C(=O)N[C@H](C(N)=O)[C@@H](C)O [Peptide 256] (H-H[Aib]HGS[αMeF]TSDVSK[αMeF]LDSQAAK([AEEA-AEEA-γGlu-γGlu-C20 diacid])D[αMeF]VQ[Aib]IANT-NH2)
0.0931	0.034	5.4	CC[C@H](C)[C@H](NC(=O)C(C)(C)NC(=O)[C@H](CCC(N)=O)NC(=O)[C@@H](NC(=O)[C@](C)(Cc1ccccc1)NC(=O)[C@H](CC(=O)O)NC(=O)[C@H](CCCCNC(=O)CCOCCOCCNC(=O)CCOCCOCCNC(=O)CC[C@H](NC(=O)CC[C@H](NC(=O)CCCCCCCCCCCCCCCCC(=O)O)C(=O)O)C(=O)O)NC(=O)[C@H](C)NC(=O)[C@H](C)NC(=O)[C@H](CCCNC(=N)N)NC(=O)[C@H](CO)NC(=O)[C@H](CC(=O)O)NC(=O)[C@H](CC(C)C)NC(=O)[C@](C)(Cc1ccccc1)NC(=O)[C@H](CCCCN)NC(=O)[C@H](CO)NC(=O)[C@@H](NC(=O)[C@H](CC(=O)O)NC(=O)[C@H](CO)NC(=O)[C@@H](NC(=O)[C@](C)(Cc1ccccc1)NC(=O)[C@H](CO)NC(=O)CNC(=O)[C@H](Cc1c[nH]cn1)NC(=O)C(C)(C)NC(=O)[C@@H](N)Cc1c[nH]cn1)[C@@H](C)O)C(C)C)C(C)C)C(=O)N[C@@H](C)C(=O)N[C@@H](CC(N)=O)C(=O)N[C@H](C(N)=O)[C@@H](C)O [Peptide 258] (H-H[Aib]HGS[αMeF]TSDVSK[αMeF]LDSRAAK([PEG2-PEG2-γGlu-γGlu-C18 diacid])D[αMeF]VQ[Aib]IANT-NH2; N-terminus assumed)
